Measurements from patent US7132437B2, “Renal-selective biphenylalkyl 1H-substituted-1,2,4-triazole angiotensin II antagonists for treatment of hypertension” (G.D. Searle, priority 1990, dated 2006).

How the values were obtained:
[1] = target: T1, smooth muscle angiotensin II receptor; assay: Assay A: Angiotensin II Binding Activity; settings: rat uterine membrane preparation, displacement of 125I-AII
T1 construct: Rat uterine membranes were prepared from fresh tissue
Experimental: Assay A: Angiotensin II Binding Activity
Compounds of Formula I were tested for ability to bind to the smooth muscle angiotensin II receptor using a rat uterine membrane preparation. […] Other chemicals were obtained from Sigma Chemical Co. This assay was carried out according to the method of Douglas et al [Endocrinology, 106, 120–124 (1980)]. Rat uterine membranes were prepared from fresh tissue. All procedures were carried out at 4° C. Uteri were stripped of fat and homogenized in phosphate-buffered saline at pH 7.4 containing 5 mM EDTA. The homogenate was centrifuged at 1500×g for 20 min., and the supernatant was recentrifuged at 100,000×g for 60 min. The pellet was resuspended in buffer consisting of 2 mM EDTA and 50 mM Tris-HCl (pH 7.5) to a final protein concentration of 4 mg/ml. […] The reaction was initiated by the addition of membrane protein and the mixture was incubated at 25° C. for 60 min. The incubation was terminated with ice-cold 50 mM Tris-HCl (pH 7.5) and the mixture was filtered to separate membrane-bound labelled peptide from the free ligand. The incubation tube and filter were washed with ice-cold buffer. Filters were assayed for radioactivity in a Micromedic gamma counter. Nonspecific binding was defined as binding in the presence of 10 μM of unlabelled AII. Specific binding was calculated as total binding minus nonspecific binding. […] Binding data were analyzed by a nonlinear least-squares curve fitting program.

[2] = system: rabbit aortic rings; assay: Assay B: In Vitro Vascular Smooth Muscle Response for AII; format: cell-based; settings: antagonist at 10^-5 M, two values per cell = aorta rings from two rabbits; for Kb: Oryctolagus cuniculus, read-out: Assay B pA2 (converted)
Experimental: Assay B: In Vitro Vascular Smooth Muscle-Response for ATT
Compounds of Formula I were tested for antagonist activity in rabbit aortic rings. Male New Zealand white rabbits (2–2.5 kg) were sacrificed using an overdose of pentobarbital and exsanguinated via the carotid arteries. The thoracic aorta was removed, cleaned of adherent fat and connective tissue and then cut into 3-mm ring segments. The endothelium was removed from the rings by gently sliding a rolled-up piece of filter paper into the vessel lumen. The rings were then mounted in a water-jacketed tissue bath, maintained at 37° C., between moveable and fixed ends of a stainless steel wire with the moveable end attached to an FT03 Grass transducer coupled to a Model 7D Grass Polygraph for recording isometric force responses. The bath was filled with 20 ml of oxygenated (95% oxygen/5% carbon dioxide) Krebs solution of the following composition […]: 130 NaCl, 15 NaHCO3, 15 KCl, 1.2 NaH2PO4, 1.2 MgSO4, 2.5 CaCl2, and 11.4 glucose. The preparations were equilibrated for one hour before approximately one gram of passive tension was placed on the rings. Angiotensin II concentration-response curves were then recorded (3×10^−10 to 1×10–5 M). Each concentration of AII was allowed to elicit its maximal contraction, and then AII was washed out repeatedly for 30 minutes before rechallenging with a higher concentration of AII. Aorta rings were exposed to the test antagonist at 10^−5 M for 5 minutes before challenging with AII. Adjacent segments of the same aorta ring were used for all concentration-response curves in the presence or absence of the test antagonist. The effectiveness of the test compound was expressed in terms of pA2 values and were calculated according to H. O. Schild [Br. J. Pharmacol. Chemother., 2, 189–206 (1947)]. […] Each test antagonist was evaluated in aorta rings from two rabbits.

[3] = system: AII pressor response; assay: Assay C: In Vivo Intraduodenal Pressor Assay Response for AII Antagonists; design: species or system Sprague-Dawley rats
Experimental: Assay C: In Vivo Intraduodenal Pressor Assay Response for AII Antagonists
Male Sprague-Dawley rats weighing 225–300-grams were anesthetized with Inactin (100 mg/kg, i.p.) and catheters were implanted into the trachea, femoral artery, femoral vein and duodenum. Arterial pressure was recorded from the femoral artery catheter on a Gould chart recorder (Gould, Cleveland, Ohio). The femoral vein catheter was used for injections of angiotensin II, mecamylamine and atropine. The tracheal catheter allow for airway patency, and the duodenal catheter was used for intraduodenal (i.d.) administration of test compounds. After surgery, the rats were allowed to equilibrate for 30 minutes. Mecamylamine (3 mg/kg, 0.3 ml/kg) and atropine (400 ug/kg, 0.3 ml/kg) were then given i.v. to produce ganglion blockade. These compounds were administered every 90 minutes throughout the test procedure. Angiotensin II was given in bolus does i.v. (30 ng/kg in saline with 0.5% bovine serum albumin, 0.1 ml/kg) every 10 minutes three times or until the increase in arterial pressure produced was within 3 mmHg for two consecutive AII injections. The last two AII injections were averaged and were taken as the control AII pressor response. […] Angiotensin II injections were then given 5, 10, 20, 30, 45, 60, 75, 90, and 120 minutes after administration of the test compound and response of arterial pressure was monitored. The response to AII was calculated as percent of the control response and then the percent inhibition is calculated as 100 minus the percent control response. Duration of action of a test compound was defined as the time from peak percent inhibition to 50% of peak. One compound at one dose was tested in each rat. Each test compound was tested in two rats and the values for the two rats were averaged.

[4] = Rattus norvegicus, intraduodenal, 30 mg/kg intraduodenally
[5] = Rattus norvegicus, intraduodenal, 100 mg/kg intraduodenally

CCCCc1nc(CC(=O)O)nn1Cc1ccc(-c2ccccc2-c2nnn[nH]2)cc1 [Example 7, 5-[4′-[(5-butyl-3-carboxymethyl-1H-1,2,4-triazol-1-yl)methyl][1,1′-biphenyl]-2-yl]-1H-tetrazole]
IC50 [1]: 84 nM | Kb [2]: 9.77 nM | Assay C Duration ([3]; 30 mg/kg intraduodenally): 130 min | inhibition at 30 mg/kg [3, 4]: 90%

CCCCc1nc(C)nn1Cc1ccc(-c2ccccc2-c2nnn[nH]2)cc1 (single isomer, unassigned) [Example 32, 5-[4′-[(5-butyl-3-methyl-1H-1,2,4-triazol-1-yl)methyl][1,1′-biphenyl]-2-yl]-1H-tetrazole]
IC50 [1]: 16 nM | melting point: 170 to 170.5 °C

CCCCc1nc(CN)nn1Cc1ccc(-c2ccccc2-c2nnn[nH]2)cc1 [Example 3, 5-[4′-[(3-aminomethyl-5-butyl-1H-1,2,4-triazol-1-yl)methyl][1,1′-biphenyl]-2-yl]-1H-tetrazole]
IC50 [1]: 5.4 nM | Kb [2]: 2 nM | Assay C Duration ([3]; 10 mg/kg intragastrically): >180 min | Assay C Duration ([3]; 30 mg/kg intragastrically): 200^+ min. | inhibition at 10 mg/kg ([3]; Rattus norvegicus, po, 10 mg/kg intragastrically): 50% | inhibition at 30 mg/kg ([3]; Rattus norvegicus, po, 30 mg/kg intragastrically): 100%

CCCCc1nc(Cl)nn1Cc1ccc(-c2ccccc2C(=O)O)cc1 (single isomer, unassigned) [Example 6, 4′-[(5-butyl-3-chloro-1H-1,2,4-triazol-1-yl)methyl][1,1′-biphenyl]-2-carboxylic acid]
Assay B pA2 [2]: 6.82 | Assay C Duration ([3]; 100 mg/kg intraduodenally): 120 min

CCCCc1nc(CCC(=O)O)nn1Cc1ccc(-c2ccccc2-c2nnn[nH]2)cc1 [Example 9, 5-[4′-[[5-butyl-3-(2-carboxyethyl)-1H-1,2,4-triazol-1-yl]methyl][1,1′-biphenyl]-2-yl]-1H-tetrazole]
IC50 [1]: 700 nM | Assay C Duration ([3]; 30 mg/kg intraduodenally): 75 min | Assay C Duration ([3]; 100 mg/kg intraduodenally): 130 min | inhibition at 30 mg/kg [3, 4]: 80% | inhibition at 100 mg/kg [3, 5]: 100%

CCCCc1nc(-c2ccccc2)nn1Cc1ccc(-c2ccccc2-c2nnn[nH]2)cc1 (single isomer, unassigned) [Example 21, 5-[4′-[(3-phenyl-5-butyl-1H-1,2,4-triazol-1-yl)methyl](1,1′-biphenyl)-2-yl]-1H-tetrazole]
IC50 [1]: 87 nM | melting point: 113 °C (dec.)

CCCCc1nc(C2CCCCC2)nn1Cc1ccc(-c2ccccc2-c2nnn[nH]2)cc1 [Example 66, 5-[4′-[(5-butyl-3-cyclohexyl-1H-1,2,4-triazol-1-yl)methyl][1,1′-biphenyl]-2-yl]-1H-tetrazole]
melting point: 125 to 127 °C

O=C(O)c1ccccc1-c1ccc(Cn2nc(C(F)(F)C(F)(F)C(F)(F)F)nc2C(F)(F)C(F)(F)C(F)(F)F)cc1 [Example 20, 4′-[(3,5-di-perfluoropropyl-1H-1,2,4-triazol-1-yl)methyl][1,1′-biphenyl]-2-carboxylic acid]
Kb [2]: 1290 nM | Assay C Duration ([3]; 100 mg/kg intraduodenally): 45 min | inhibition at 100 mg/kg [3, 5]: 10%

CCCCc1nc(C(=O)CCC)nn1Cc1ccc(-c2ccccc2-c2nnn[nH]2)cc1 [Example 30]
melting point: 150.5 to 152.5 °C

CCCCc1nc(CCCN)nn1Cc1ccc(-c2ccccc2-c2nnn[nH]2)cc1 [Example 5, 5-[4′-[[3-(3-aminopropyl)-5-butyl-1H-1,2,4-triazol-1-yl]methyl][1,1′-biphenyl]-2-yl]-1H-tetrazole]
IC50 [1]: 200 nM | Assay C Duration ([3]; 30 mg/kg intraduodenally): 20 to 30 min | inhibition at 30 mg/kg [3, 4]: 38%

CCCCc1nc(C(F)(F)CCC)nn1Cc1ccc(-c2ccccc2C(=O)O)cc1 [Example 10]
Assay C Duration ([3]; 3 mg/kg intraduodenally, time from peak percent inhibition to 50% of peak): 100 min | Assay C Duration ([3]; 30 mg/kg intraduodenally): 240 min | inhibition at 3 mg/kg ([3]; Rattus norvegicus, intraduodenal): 86% | inhibition at 30 mg/kg [3, 4]: 100%

CCCCc1nc(C2CCCCC2)n(Cc2ccc(-c3ccccc3-c3nnn[nH]3)cc2)n1 [Example 65, 5-[4′-[(3-butyl-5-cyclohexyl-1H-1,2,4-triazol-1-yl)methyl][1,1′-biphenyl]-2-yl]-1H-tetrazole]
melting point: 157.5 to 159.5 °C
